A word on the Ki: it is a dissociation constant, usually derived from enzyme kinetics or from competition with a known ligand. Read a low Ki as a stronger hold on the target. As usually defined, the logD is the decadic logarithm of the distribution of all forms, ionised or not, between an organic phase and buffer at a given pH. Low readings indicate lower lipophilicity, high ones higher lipophilicity.

The values that follow come from ChEMBL document CHEMBL3232737, “Synthesis and in vitro evaluation of small-molecule [18F] labeled gonadotropin-releasing hormone (GnRH) receptor antagonists as potential PET imaging agents for GnRH receptor expression” (Bioorg Med Chem Lett, 2014).

Data set [1] concerns the target T1, Gonadotropin-releasing hormone receptor (Rattus norvegicus, UniProt P30969).
T1 sequence (P30969 whole entry): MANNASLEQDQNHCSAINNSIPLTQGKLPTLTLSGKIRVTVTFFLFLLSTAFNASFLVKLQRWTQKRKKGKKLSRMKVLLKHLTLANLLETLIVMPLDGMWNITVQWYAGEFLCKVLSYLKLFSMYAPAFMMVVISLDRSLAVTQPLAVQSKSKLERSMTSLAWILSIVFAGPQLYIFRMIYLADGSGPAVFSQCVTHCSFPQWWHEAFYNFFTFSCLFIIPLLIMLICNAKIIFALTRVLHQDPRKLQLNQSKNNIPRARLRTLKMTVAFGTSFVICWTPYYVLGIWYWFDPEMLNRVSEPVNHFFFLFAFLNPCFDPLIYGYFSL
Kind of data set: Displacement of [125I]Triptorelin from rat full-length gonadotropin-releasing hormone receptor expressed in HEK293 cells. Format: cell-based. (In general: In a radioligand displacement assay an active substance lowers the binding of a labelled ligand.)

Data set [2] addresses T2, Gonadotropin-releasing hormone receptor (Homo sapiens, UniProt P30968).
T2 sequence (P30968 whole entry): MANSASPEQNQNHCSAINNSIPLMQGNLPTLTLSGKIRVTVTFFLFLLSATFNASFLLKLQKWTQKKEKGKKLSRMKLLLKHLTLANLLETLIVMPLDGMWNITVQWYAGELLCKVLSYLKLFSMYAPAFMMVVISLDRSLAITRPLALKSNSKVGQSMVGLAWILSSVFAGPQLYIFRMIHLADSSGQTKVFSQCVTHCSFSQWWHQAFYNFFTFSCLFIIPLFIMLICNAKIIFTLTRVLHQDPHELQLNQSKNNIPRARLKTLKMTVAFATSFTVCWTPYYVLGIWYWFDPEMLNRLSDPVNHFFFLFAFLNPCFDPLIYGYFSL
Kind of data set: Binding affinity to human gonadotropin-releasing hormone receptor by radioligand displacement assay.

For data set [3], the target named is T3, Gonadotropin-releasing hormone receptor (Mus musculus, UniProt Q01776).
T3 sequence (Q01776 whole entry): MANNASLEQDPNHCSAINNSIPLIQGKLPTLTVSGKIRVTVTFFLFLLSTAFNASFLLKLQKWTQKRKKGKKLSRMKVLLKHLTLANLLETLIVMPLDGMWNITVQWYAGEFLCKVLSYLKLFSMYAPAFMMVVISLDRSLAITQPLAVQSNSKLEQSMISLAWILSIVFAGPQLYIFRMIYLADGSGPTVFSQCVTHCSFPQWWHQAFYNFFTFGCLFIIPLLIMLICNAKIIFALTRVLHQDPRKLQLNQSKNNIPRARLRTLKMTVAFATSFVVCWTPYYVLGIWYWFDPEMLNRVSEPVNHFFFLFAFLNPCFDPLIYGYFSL
Kind of data set: Binding affinity to mouse gonadotropin-releasing hormone receptor by radioligand displacement assay.

Data set [4] in a line: Octanol-PBS partition coefficient, log P of the compound at 10 kBq at pH 7.4 by gamma counting analysis. It is filed as physicochemical.

With `COc1nc(F)nc(OC)c1NC(=O)c1ccc(Oc2cc3c(cc2C)CCC3(C)C)o1`, the affinity in data set [1] corresponds to a Ki of 42 nM. `COc1cc(OC)c(NC(=O)c2ccc(Cc3cc4c(cc3C)C(C)(C)CCC4(C)C)o2)c(OC)c1`: the figures for the inhibitory constant (Ki) in data set [2] and in data set [3] were 6 nM and 2.2 nM, respectively.

Take `COc1nc(OCC[18F])nc(OC)c1NC(=O)c1ccc(Oc2cc3c(cc2C)CCC3(C)C)o1`: in data set [4], the logD was 1.74. In turn, `COc1nc(OCCF)nc(OC)c1NC(=O)c1ccc(Oc2cc3c(cc2C)CCC3(C)C)o1` had a Ki in data set [1] of 1.36 nM.
